This assay has as its target T1, CfNOS (native) (Azumapecten farreri, UniProt S4UD24).
T1 construct: gene NOS; immunoprecipitated from scallop haemocyte lysate with rat polyclonal antibody to rCfNOS, Protein G column
T1 sequence (S4UD24 1-1486): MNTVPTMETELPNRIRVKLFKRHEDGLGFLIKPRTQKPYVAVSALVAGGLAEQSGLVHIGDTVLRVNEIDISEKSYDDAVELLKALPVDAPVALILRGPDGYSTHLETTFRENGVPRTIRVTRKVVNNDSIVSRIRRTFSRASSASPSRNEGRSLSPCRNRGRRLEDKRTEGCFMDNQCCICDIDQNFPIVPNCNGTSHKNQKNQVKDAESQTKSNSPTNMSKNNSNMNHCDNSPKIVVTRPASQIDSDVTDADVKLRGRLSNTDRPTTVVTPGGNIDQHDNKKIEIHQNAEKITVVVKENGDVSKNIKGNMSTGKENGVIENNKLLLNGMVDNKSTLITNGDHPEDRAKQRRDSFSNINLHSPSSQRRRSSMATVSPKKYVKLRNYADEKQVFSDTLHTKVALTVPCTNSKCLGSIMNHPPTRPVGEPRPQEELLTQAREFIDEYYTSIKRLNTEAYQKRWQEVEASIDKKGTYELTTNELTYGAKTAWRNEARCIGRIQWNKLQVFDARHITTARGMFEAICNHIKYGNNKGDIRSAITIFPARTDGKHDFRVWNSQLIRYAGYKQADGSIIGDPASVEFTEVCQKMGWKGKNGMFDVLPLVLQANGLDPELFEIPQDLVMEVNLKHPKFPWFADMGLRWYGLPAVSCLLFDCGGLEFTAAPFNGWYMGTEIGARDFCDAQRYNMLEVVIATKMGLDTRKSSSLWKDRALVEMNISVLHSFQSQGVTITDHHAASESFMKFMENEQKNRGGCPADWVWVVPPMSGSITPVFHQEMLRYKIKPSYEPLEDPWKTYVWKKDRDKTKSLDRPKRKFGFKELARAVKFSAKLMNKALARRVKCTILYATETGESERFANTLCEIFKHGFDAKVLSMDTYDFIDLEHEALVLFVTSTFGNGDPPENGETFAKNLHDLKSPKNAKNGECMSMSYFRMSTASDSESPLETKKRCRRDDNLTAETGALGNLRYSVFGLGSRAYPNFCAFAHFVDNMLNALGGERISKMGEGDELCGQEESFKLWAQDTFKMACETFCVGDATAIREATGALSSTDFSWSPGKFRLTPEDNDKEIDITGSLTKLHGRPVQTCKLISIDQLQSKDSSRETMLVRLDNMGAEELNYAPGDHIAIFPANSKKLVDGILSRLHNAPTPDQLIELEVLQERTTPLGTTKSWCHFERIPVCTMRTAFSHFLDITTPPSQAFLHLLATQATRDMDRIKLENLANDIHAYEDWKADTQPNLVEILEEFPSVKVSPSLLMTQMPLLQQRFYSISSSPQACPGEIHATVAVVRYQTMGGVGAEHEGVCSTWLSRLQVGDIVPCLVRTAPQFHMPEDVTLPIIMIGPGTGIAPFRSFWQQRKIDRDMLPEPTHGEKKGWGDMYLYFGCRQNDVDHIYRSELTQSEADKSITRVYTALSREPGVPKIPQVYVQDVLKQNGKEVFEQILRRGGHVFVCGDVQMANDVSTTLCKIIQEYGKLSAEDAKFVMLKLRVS
The assay is described as follows: NOS activity by total NOS detection kit (absorbance […] nm). The assay is classed as biochemical. The note with it: no inhibitor; immunoprecipitated native enzyme.

These results are taken from paper PMC3724850, “A Scallop Nitric Oxide Synthase (NOS) with Structure Similar to Neuronal NOS and Its Involvement in the Immune Defense” (PLoS ONE, 2013).

`N=C(N)NCCC[C@H](N)C(=O)O` [L-Arginine]: the “NOS activity by total NOS detection kit (absorbance 530 nm)” value is “measuring the NO production using L-Arginine as the substrate”.
